These results are taken from article PMC10108392, “Rimonabant-Based Compounds Bearing Hydrophobic Amino Acid Derivatives as Cannabinoid Receptor Subtype 1 Ligands” (ACS Medicinal Chemistry Letters, 2023).

The target in test [1] is T1, CB1R (Rattus norvegicus, UniProt P20272).
T1 construct: Crude membrane fractions were prepared from the brain; from tissue; host or cells: Wistar rat whole brain, crude membrane fraction
Briefly: [3H]WIN55,212-2 radioligand competition binding assay in rat brain membrane homogenate. The following applies: for Ki: read-out: Ki [3H]WIN55,212-2 binding, 5 nM [3H]WIN55,212-2, ± SEM, n.b. = no binding of ligands was observed; for Ki [3H]WIN55,212-2 binding: 5 nM [3H]WIN55,212-2, ± SEM, n.b. = no binding of ligands was observed. How it is done: (§1) Our novel chemical compounds were tested in vitro for their binding ability, efficacy, and potency on CB1R in rat brain membrane homogenate (Table 2 and SI, Figure S1). CB1Rs are the most abundant G-protein coupled receptors in the rodent and mammalian brain; therefore, this is an appropriate model to characterize our ligands in a more physiological system.
(§2) In Vitro Biological Assays
(§3) Preparation of Brain Membrane Homogenates
(§4) Wistar rats were locally bred and handled according to the EU Directive 2010/63/EU and to the Regulations on Animal Protection (40/2013. (II. 14.) Korm. r.) of Hungary. Crude membrane fractions were prepared from the brain. Brains were quickly removed from the euthanized rats and directly put in an ice-cold 50 mM Tris-HCl buffer (pH 7.4). The collected tissue was then homogenized in 30 volumes (v/w) of an ice-cold buffer with a Braun Teflon-glass homogenizer at the highest rpm. The homogenate was centrifuged at 20,000 × g for 25 min, and the resulting pellet was suspended in the same volume of a cold buffer followed by incubation at 37 °C for 30 min to remove endogenous ligands. Centrifugation was then repeated. The final pellets were taken up in five volumes of a 50 mM Tris-HCl (pH 7.4) buffer containing 0.32 M sucrose and stored at -80 °C. Prior to the experiment, aliquots were thawed and centrifuged at 20,000 ×g for 25 min and then they were resuspended in 50 mM Tris-HCl (pH 7.4), homogenized with a Douncer, followed by the determination of the protein concentration by the method of Bradford. The membrane suspensions were immediately used either in radioligand binding experiments or in [35S]GTPγS functional assays.
Radioligand Competition Binding Assay
Binding experiments were performed at 30 °C for 60 min in a 50 mM Tris-HCl binding buffer (pH 7.4) containing 2.5 mM of EGTA, 5 mM of MgCl2 and 0.5 mg/mL of fatty acid-free BSA in plastic tubes in a total assay volume of 1 mL that contained 0.3-0.5 mg/mL of a membrane protein. Competition binding […]
ligands. […] The incubation […]
was terminated by diluting the samples with an ice-cold wash buffer (50 mM of Tris-HCl, 2.5 mM of EGTA, 5 mM of MgCl2, 0.5% fatty acid free BSA, pH 7.4), followed by repeated washing and rapid filtration through Whatman GF/B glass fiber filters (Whatman Ltd., Maidstone, UK) pre-soaked with 0.1% polyethyleneimine (30 min before the filtration). Filtration was performed with a 24-well Brandel Cell Harvester (Gaithersburg, MD, USA). Filters were air-dried and immersed into Ultima Gold MV scintillation cocktail, and then radioactivity was measured with a TRI-CARB 2100TR liquid scintillation analyzer (Packard, Perkin Elmer, Waltham, MA, USA). […]
The results of the competition binding studies are reported as means ± S.E.M. of at least three independent experiments each performed in duplicate. In competition binding studies, the inhibitory constants (Ki) were calculated from the inflection points of the displacement curves using non-linear least-square curve fitting and the Cheng-Prusoff equation, Ki= […]/(1 + [ligand]/Kd). […]
(In a radioligand displacement assay an active substance lowers the binding of a labelled ligand.)

Test [2] deals with T1, CB1R. Briefly: Ligand stimulated [35S]GTPγS binding assay in rat brain membranes. The class given is biochemical. Conditions: for EC50 / CB1R functional profile (agonist / antagonist / inverse agonist): rat brain membranes; for EC50: ± SEM, read-out: [35S]GTPγS stimulation EC50; for CB1R functional profile (agonist / antagonist / inverse agonist): from [35S]GTPγS binding; for Emax: read-out: [35S]GTPγS stimulation Emax. How it is done: as §1, §2, §3
as §4, with “assays. […]” for “assays.”
was terminated by diluting the samples with an ice-cold wash buffer (50 mM of Tris-HCl, 2.5 mM of EGTA, 5 mM of MgCl2, 0.5% fatty acid free BSA, pH 7.4), followed by repeated washing and rapid filtration through Whatman GF/B glass fiber filters (Whatman Ltd., Maidstone, UK) pre-soaked with 0.1% polyethyleneimine (30 min before the filtration). Filtration was performed with a 24-well Brandel Cell Harvester (Gaithersburg, MD, USA). Filters were air-dried and immersed into Ultima Gold MV scintillation cocktail, and then radioactivity was measured with a TRI-CARB 2100TR liquid scintillation analyzer (Packard, Perkin Elmer, Waltham, MA, USA).
Ligand Stimulated [35S]GTPγS Binding Assay
Rat brain membranes (30 µg protein/tube), prepared as described above, were incubated with 0.05 nM of […]
mM of NaCl, 3 mM of MgCl2 and 1 mM of EGTA in a 50 mM Tris-HCl buffer (pH 7.4) for 60 min at 30 °C. Basal [35S]GTPγS binding was measured in the absence of ligands and set as 100%. Nonspecific […]
binding was determined by the addition of 10 µM unlabelled GTPγS and subtracted from total binding.
Incubation, filtration and radioactivity measurements of the samples were carried out as described above. […]
All […]
data and curves were analyzed by GraphPad Prism 5.0 (San Diego, CA, USA).
On the technique in general: GTPγS is a poorly hydrolysed GTP analogue; its binding reports G protein activation.

T1 sequence (P20272 whole entry): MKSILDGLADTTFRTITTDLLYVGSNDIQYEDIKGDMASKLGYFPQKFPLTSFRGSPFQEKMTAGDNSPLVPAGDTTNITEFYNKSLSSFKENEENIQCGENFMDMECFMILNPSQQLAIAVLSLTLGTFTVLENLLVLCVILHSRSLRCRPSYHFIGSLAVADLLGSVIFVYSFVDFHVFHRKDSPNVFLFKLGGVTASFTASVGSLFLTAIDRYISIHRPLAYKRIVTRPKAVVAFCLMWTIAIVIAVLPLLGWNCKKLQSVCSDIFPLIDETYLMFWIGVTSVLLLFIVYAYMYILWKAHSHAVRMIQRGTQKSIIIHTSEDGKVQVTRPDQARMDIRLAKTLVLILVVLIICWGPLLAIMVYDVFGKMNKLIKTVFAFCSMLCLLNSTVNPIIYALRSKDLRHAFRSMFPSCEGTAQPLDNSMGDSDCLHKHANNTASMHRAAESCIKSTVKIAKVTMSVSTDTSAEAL

For orientation: Ki means a dissociation constant, usually derived from enzyme kinetics or from competition with a known ligand. Broadly, the EC50 is the concentration that produces a half-maximal response. For `CC(C)[C@H](NC(=O)c1cc(-n2cccc2)n(-c2ccc(Cl)cc2)n1)C(N)=O` [Compound 11, RS2689-Val-NH2], the Ki on CB1R [1] amounted to 341 ± 19 nM. The EC50 at CB1R [2] was determined as 1160 ± 79 nM.

As for `CNC(=O)[C@@H](NC(=O)c1nn(-c2ccc(Cl)cc2Cl)c(-n2cccc2Cl)c1C)C(C)(C)C` [Compound 40, RS3516-tLeu-NHCH3], on CB1R [1], the “Ki [3H]WIN55,212-2 binding” value is given as “n.b”. Moreover, on CB1R [2], the EC50 worked out at 237 ± 45 nM.

Take `CC(C)(C)[C@H](NC(=O)c1cc(-n2cccc2)n(-c2ccccc2)n1)C(=O)O` [Compound 6, RS2708-tLeu-OH]: the “Ki [3H]WIN55,212-2 binding” value at CB1R [1] is recorded as “n.b”. Besides, on CB1R [2], the EC50 is 2450 ± 118 nM.

Regarding `CC(C)[C@H](NC(=O)c1cc(-n2cccc2)n(-c2ccc(Cl)cc2)n1)C(=O)O` [Compound 1, RS2689-Val-OH], the “Ki [3H]WIN55,212-2 binding” value on CB1R [1] is “n.b”. At CB1R [2], the EC50 was determined as 5870 ± 372 nM.

As for `CC(C)[C@H](NC(=O)c1cc(-n2cccc2)n(-c2ccccc2)n1)C(N)=O` [Compound 15, RS2708-Val-NH2], on CB1R [1], the “Ki [3H]WIN55,212-2 binding” value is “n.b”. Further, at CB1R [2], the EC50 was found to be 1230 ± 121 nM.

As a reminder, the Emax is the size of the effect at its maximum, as opposed to the concentration needed. For the molecule `CNC(=O)[C@@H](NC(=O)c1nn(-c2ccccc2)c(-n2cccc2)c1C)C(C)(C)C` [Compound 38, RS2709-tLeu-NHCH3], the Ki on CB1R [1] stood at 42 ± 3.9 nM. In addition, on CB1R [2], the “CB1R functional profile (agonist / antagonist / inverse agonist)” value was “antagonists” and the Emax was determined as 102 ± 2%.

Consider `CNC(=O)[C@@H](NC(=O)c1cc(-n2cccc2)n(-c2ccc(Cl)cc2)n1)C(C)C` [Compound 31, RS2689-Val-NHCH3], for which, at CB1R [1], the “Ki [3H]WIN55,212-2 binding” value is reported as “modest affinity” and the Ki came out at 387 ± 33 nM. In addition, at CB1R [2], the “CB1R functional profile (agonist / antagonist / inverse agonist)” value is on record as “weak inverse agonist” and the EC50 came to 601 ± 21 nM.

Turning to `CNC(=O)[C@@H](NC(=O)c1cc(-n2cccc2)n(-c2ccc(Cl)cc2)n1)C(C)(C)C` [Compound 32, RS2689-tLeu-NHCH3], at CB1R [1], the Ki came to 42 ± 2.9 nM. Moreover, on CB1R [2], the “CB1R functional profile (agonist / antagonist / inverse agonist)” value was “agonist”, the EC50 stood at 389 ± 51 nM and the Emax came out at 120 ± 2%.

Regarding `COC(=O)[C@@H](NC(=O)c1cc(-n2cccc2)n(-c2ccccc2)n1)C(C)C` [Compound 25, RS2708-Val-OCH3], the Ki at CB1R [1] was 1360 ± 16 nM. In addition, on CB1R [2], the EC50 was found to be 468 ± 22 nM.

Regarding `CNC(=O)[C@@H](NC(=O)c1cc(-n2cccc2)n(-c2ccccc2)n1)C(C)C` [Compound 35, RS2708-Val-NHCH3], on CB1R [1], the “Ki [3H]WIN55,212-2 binding” value is given as “modest affinity” and the Ki amounted to 7940 ± 266 nM. Further, on CB1R [2], the “CB1R functional profile (agonist / antagonist / inverse agonist)” value is given as “weak inverse agonist” and the EC50 came to 2460 ± 240 nM.

In the case of `COC(=O)[C@@H](NC(=O)c1nn(-c2ccccc2)c(-n2cccc2)c1C)C(C)C` [Compound 27, RS2709-Val-OCH3], on CB1R [1], the Ki turned out to be 449 ± 15 nM. Moreover, on CB1R [2], the EC50 was found to be 2080 ± 129 nM.

As to `Cc1c(C(=O)N[C@H](C(N)=O)C(C)C)nn(-c2ccccc2)c1-n1cccc1` [Compound 17, RS2709-Val-NH2], on CB1R [1], the Ki was 1060 ± 72 nM. Further, the half-maximal effective concentration (EC50) on CB1R [2] is 4240 ± 377 nM.

In the case of `Cc1c(C(=O)N[C@H](C(=O)O)C(C)(C)C)nn(-c2ccc(Cl)cc2Cl)c1-n1cccc1Cl` [Compound 10, RS3516-tLeu-OH], the “Ki [3H]WIN55,212-2 binding” value at CB1R [1] is reported as “n.b”. Moreover, the EC50 on CB1R [2] is 1650 ± 98 nM.

With `CC(C)[C@H](NC(=O)c1cc(-n2cccc2)n(-c2ccccc2)n1)C(=O)O` [Compound 5, RS2708-Val-OH], the “Ki [3H]WIN55,212-2 binding” value on CB1R [1] was “n.b”. In addition, the EC50 at CB1R [2] was 1650 ± 75 nM.

For `Cc1c(C(=O)N[C@H](C(=O)O)C(C)C)nn(-c2ccccc2)c1-n1cccc1` [Compound 7, RS2709-Val-OH], the “Ki [3H]WIN55,212-2 binding” value on CB1R [1] is recorded as “n.b”. The EC50 on CB1R [2] turned out to be 2550 ± 106 nM.

Regarding `Cc1c(C(=O)N[C@H](C(N)=O)C(C)C)nn(-c2ccc(Cl)cc2)c1-n1cccc1` [Compound 13, RS2691-Val-NH2], the Ki on CB1R [1] was 123 ± 13 nM.

As for `CC(C)(C)[C@H](NC(=O)c1cc(-n2cccc2)n(-c2ccc(Cl)cc2)n1)C(N)=O` [Compound 12, RS2689-tLeu-NH2], the inhibition constant (Ki) on CB1R [1] amounted to 102 ± 16 nM.
